Measurements taken from patent US20160304957A1, “TREATMENT AND MODULATION OF GENE EXPRESSION AND SKIN AGING” (DSM NUTRITIONAL PRODUCTS LTD., priority 2006, published 2016).

System: HaCaT human keratinocytes
Assay: Affymetrix GeneChip microarray, transcriptional response to β-carotene and/or UVA
Assay type: cell-based
Details: β-carotene 1.5 μM, unirradiated
Experimental: The cell culture experiments were carried out as described. Briefly, a subclone of passage 65 HaCaT keratinocytes, selected for differentiation capacity, was used at passages 16 to 23 after subcloning. 2×10^5 cells were seeded per 60 millimeter dish. Starting the following day, the cells were pretreated for 2 days with β-carotene at 1.5 μM, a typical concentration in human plasma after moderate dietary supplementation)
β-carotene-containing medium was prepared as follows. Fresh all-E-β-carotene (DSM Nutritional Products, Kaiseraugst, Switzerland) stock solution in THF (containing 0.025% BHT; Fluka Chemie A G, Switzerland) was diluted 1:2 with ethanol and added to cell culture medium to a final concentration of 1.5 μM β-carotene. The solvent concentration in the medium was 0.5% for all treatments. β-carotene-containing medium was prepared fresh for the daily medium changes.
On day 3 of the experiment, the cells were irradiated with a Hönle sun lamp Sol 500 (270 kJ/m^2; Dr. Hönle, Germany).
Five independent, factorially designed cell irradiation experiments were analyzed by microarray hybridization. For each experiment, one chip was hybridized per treatment condition. GeneChip® analysis was done as described in [132], which is incorporated by reference, as if recited in full herein. Gene regulation by β-carotene and/or UVA was calculated relative to placebo.
Changes in gene expression were included in further analysis only if the change factor was […], and if unpaired t-tests yielded p values≦0.05. Upregulations by a […] are labeled bold, downregulations by a change factor of […] are labeled bold italics. (Table 1) To identify the pathways affected by the treatments functional information on the genes was retrieved from public literature databases.

CC1=C(/C=C/C(C)=C/C=C/C(C)=C/C=C/C=C(C)/C=C/C=C(C)/C=C/C2=C(C)CCCC2(C)C)C(C)(C)CCC1 [β-carotene, All-E-β-carotene]
N-RAS (X02751) change factor: −1.2 | NCF2; p67-phox; neutrophil oxidase factor (M32011) change factor: −0.8 | NF-κB subunit (S78771) change factor: −0.1 | NF-κB subunit (X61498) change factor: −0.07 | NFκB; p50 (S76638) change factor: −0.46 | NOL1; p120 nucleolar antigen (X55504) change factor: 0.04 | NOTCH3 (U97669) change factor: −0.8 | NOV (X96584) change factor: −0.7 | NOXA (D90070) change factor: −0.26 | NRF1 (L24123) change factor: −0.27 | NRF2, subunit beta 1 (U13045) change factor: −1.5 | OSR1; oxidative-stress responsive 1 (AB017642) change factor: −0.18 | PAR-1; thrombin receptor (M62424) change factor: −0.5 | PAR-2; proteinase activated receptor-2 (U34038) change factor: −0.27 | PAR-2; proteinase activated receptor-2 (U34038, second entry) change factor: −0.03 | PAR-2; proteinase activated receptor-2 (U67058) change factor: 0.03 | PAR-4; protease-activated receptor 4 (AF055917) change factor: −0.49 | RAIDD; death adaptor molecule (U79115) change factor: −0.22 | RB1 (L49229) change factor: −0.8 | RB2/p130 (X74594) change factor: −0.6 | RETSDR1; retinal short-chain dehydrogenase/reductase (AF061741) change factor: 1.1 | RPA; replication protein A 14 kda subunit (rpa) (L07493) change factor: −0.04 | RXRα (U66306) change factor: −0.2 | RXRα (X52773) change factor: −0.2 | Requiem (AF001433) change factor: 0.5 | SMAD 1 (U59423) change factor: −0.27 | SMAD3 (U68019) change factor: 0.5 | SMAD3 (U68019, second entry) change factor: 0.18 | SMAD4 (U44378) change factor: −0.7 | SMAD5 (U59913) change factor: −0.9 | SMAD6 (AF035528) change factor: −0.47 | SMAD7 (AF010193) change factor: −0.19 | SMRT (U37146) change factor: −0.33 | STK15; BTAK (AF011468) change factor: −0.18 | TDAG51; PQ-rich protein; PHLDA1 (Z50194) change factor: 0.27 | TGFβ; transforming growth factor β (X02812) change factor: 0.9 | TIAR; nucleolysin tiar (M96954) change factor: −0.45 | TIEG, EGRα (AF050110) change factor: −0.8 | TLR3; toll-like receptor 3 (U88879) change factor: 0.6 | TOP2; topoisomerase II (J04088) change factor: −0.22 | TRADD; TNF receptor-1 associated protein (L41690) change factor: 0.23 | TRAIL; TNF-related apoptosis inducing ligand (U37518) change factor: 0.15 | TRIP14; ‘2-5’ oligoadenylate synthetase (AJ225089) change factor: −0.07 | TRIP (U77845) change factor: −0.06 | TSSC3 (AF035444) change factor: −0.44 | TSSC3/IPL (AF001294) change factor: −0.6 | VEGF (AF022375) change factor: −0.5 | VEGF (AF024710) change factor: 0.02 | VEGF (M63978) change factor: −0.48 | VEGFR2; VEGF receptor 2; KDR; FLK-1kdr/flk-1 (AF035121) change factor: 0.6 | WEE1 (X62048) change factor: −0.6 | WNT5A (I20861) change factor: −0.47 | WNT5A (I20861, second entry) change factor: −1.7 | XRCC4 (U40622) change factor: −0.05 | bFGF; basic fibroblast growth factor; FGF2 (M27968) change factor: 0.1 | bilirubin udp-glucuronosyltransferase isozyme 2 (M57951) change factor: −0.25 | bullous pemphigoid autoantigen bp180 (M91669) change factor: −0.45 | c-myc (V00568) change factor: 0.1 | c-myc (V00568, second entry) change factor: 0.1 | c-myc binding protein (mbp-1) (M55914) change factor: 0.5 | caspase 2, ICH-1S (U13022) change factor: −0.31 | caspase 7 (U67319) change factor: −0.09 | ceruloplasmin (ferroxidase) (M13699) change factor: 1 | collagen type IV, α-2 (COL4A2) (X05610) change factor: −0.13 | collagen type IV, α-5 (COL4A5) (M58526) change factor: −0.8 | collagen type IV, α-6 (COL4A6) (D21337) change factor: −0.44 | collagen type VII, α-1 (COL7A1) (L02870) change factor: −0.21 | connexin 31 (AF099730) change factor: 0.17 | connexin 45 (U03493) change factor: −0.06 | coproporphyrinogen oxidase (D16611) change factor: −0.21 | cyclin E2 (AF091433) change factor: −0.25 | cyclin E (M73812) change factor: −0.23 | desmocollin type 4 (D17427) change factor: −1.3 | ferritin heavy chain (L20941) change factor: 0.36 | frizzled-2 (I37882) change factor: −0.03 | frizzled-6 (AB012911) change factor: −0.5 | haemochromatosis protein (hla-h) (U60319) change factor: 0.15 | hsp40; heat shock protein 40 (U40992) change factor: −0.6 | integrin α6 (X53586) change factor: −1.1 | integrin α6b (S66213) change factor: −0.9 | integrin α6b (S66213, second entry) change factor: −1.3 | jagged2 (jag2) (AF029778) change factor: −0.02 | keratin 2e (KRT2E); Keratin 2A (AF019084) change factor: −0.46 | keratin 5 (M21389) change factor: 0.9 | keratin 15 (J00124) change factor: 1 | keratin 16 (M28439) change factor: −2 | keratin 17 (Z19574) change factor: 0.04 | mKI67a mrna (long type) for antigen of monoclonal antibody KI-67 (X65550) change factor: −0.3 | mKI67a mrna (long type) for antigen of monoclonal antibody KI-67 (X65550, second entry) change factor: −0.17 | ornithine decarboxylase (M33764) change factor: −0.2 | ornithine decarboxylase (X16277) change factor: −0.32 | p21; wild-type p53 activated fragment-1 (WAF1) (U03106) change factor: −0.5 | p33; ING1b (AB024401) change factor: −0.47 | p160ROCK (U43195) change factor: −0.28 | protoporphyrinogen oxidase (D38537) change factor: −0.32 | rTS α (X67098) change factor: 0.13 | serpinB1 (M93056) change factor: 0.7 | stimulator of Fe transport (AF020761) change factor: 0.03 | thioredoxin reductase (X91247) change factor: −0.08 | thymidylate synthase (X02308) change factor: −0.12 | transferrin receptor (X01060) change factor: −0.05 | uroporphyrinogen III synthase (J03824) change factor: −0.15 | α topoisomerase truncated-form (L47276) change factor: −0.43
